Patent publication US11414489B2, “Combination therapy with a hyaluronan-degrading enzyme and an immune checkpoint inhibitor” (HALOZYME, INC., priority 2014, dated 2022)

Columns and labels:
[1] = tested on: parental MH194+PSC4 syngeneic tumors; assay: Tumor growth in parental MH194+PSC4 syngeneic tumor mouse model (tumor volume, TGI); format: in vivo, C57BL/6 mice; conditions: for Tumor volume, Day 0: Day 0 (baseline); for Tumor volume, Day 0 / Tumor volume, Day 3 / Tumor volume, Day 7 / Tumor volume, Day 10 / Tumor volume, Day 14 / Tumor volume, Day 17 / Tumor volume, Day 21: mean ± SEM; for TGI (tumor growth inhibition): last day vs vehicle
Procedure: MH194 mouse pancreatic carcinoma cells (derived from the KrasLSL.G12D/+p53R172H/+PdxCretg/+ genetically engineered mouse model) were engineered to constitutively express human hyaluronan synthase 3 (HAS3) as in Example 1A. Stably transduced cells, designated MH194/HAS3 cells, were selected by hygromycin treatment. MH194/HAS3 and parental MH194 cells were maintained in tissue culture as an adherent monolayer in DMEM medium supplemented with 2 mM L-glutamine and 10% fetal bovine serum at 37° C. and 5% CO2.
Pancreas from C57BL/6 mice were minced with razor blades and placed in 2 mL of a digestion buffer containing 0.05% collagenase P, 0.1% DNAse, and 0.02% Pronase in Gey's balanced salt solution (GBSS). Following two […] digestion incubations at 37° C. with thorough mixing after each incubation, the resulting cell suspension was filtered through a 100 μm nylon mesh, washed twice in GBSS with 0.3% bovine serum albumin (BSA), and resuspended in 10 mL GBSS/BSA. Eight mL of Histodenz (Sigma, Cat. No. D2158) was added to the cell suspension, and the entire volume was pipetted under 6 mL GBSS/BSA in order to generate a discontinuous density gradient. Following centrifugation for 20 min at 1,400 g with the brake set at zero, the desired cells were harvested from the interface between the two density volumes and washed once with PBS and once with DMEM medium supplemented with 2 mM L-glutamine, 10% fetal bovine serum, and 1% amphotericin-B (complete DMEM). Cells were immortalized using Lenti-SV40 (Capital Biosciences, Cat. No. CIP-0011) using manufacturer's protocol. The resulting cell line, designated PSC4, were maintained in tissue culture as an adherent monolayer in complete DMEM at 37° C. and 5% CO2.
MH194/HAS3 cells as described in part A above were trypsin-harvested at 80-90% confluency, washed twice with sterile Hanks Balanced Salt Solution (HBSS), and diluted with HBSS to a concentration of 4×10^6 cells/mL. Male C57BL/6 mice were obtained at 4-6 weeks from Taconic Farms and housed 4/cage. For tumor inoculations, mice were injected with 50 μL of cell suspension containing 2×10^5 MH194/HAS3 cells or parental MH194 cells along with 5×10^5 PSC4 (7×10^5 cells total) intramuscularly, adjacent to the right tibial periosteum.
Tumor volumes were measured by ultrasound as in Example 1A2. Approximately 15-30 frames out of 150-200 frames were analyzed and a tumor volume calculated and expressed in mm^3. When using the HA quantitation procedure described in Example 1A3, tumors grown from parental MH194+PSC4 cells contained 263±16 ng HA/mg tissue, whereas tumors grown from MH194/HAS3+PSC4 cells contained 1783±99 ng HA/mg tissue.
Mice containing parental MH194+PSC4 syngeneic tumors generated as described in Example 1C, with a mean tumor volume of 131±26 mm^3, were randomized into treatment groups, each containing 6 mice, such that the mean tumor volume of each group were substantially the same. Dexamethasone or saline (0.9% sodium chloride for injection) were administered intraperitoneally (IP) on days 0, 3, 7, 10, 14, and 17, and anti-PD-1 (BioXCell Inc, clone RMP1-14, Cat. No. BE0146) or saline were administered intraperitoneally (IP) on days 1, 4, 8, 11, 15, and 18, all at the dose levels indicated in Table 27. Tumor volumes were measured on days 0, 3, 7, 10, 14, 17, and 21. The middle dexamethasone dose level (3 mg/kg) was selected to approximate the human dose equivalent for clinical trials in which PEGPH20 is administered with dexamethasone to alleviate musculoskeletal discomfort.

[2] = glucocorticoid administration; route (IV or PO); cited from earlier work
[3] = Dex 1 mg/kg IP 24 h prior to saline or α-PD-1 4 mg/kg IP
[4] = Dex 3 mg/kg IP 24 h prior to saline or α-PD-1 4 mg/kg IP
[5] = Dex 5 mg/kg IP 24 h prior to saline or α-PD-1 4 mg/kg IP

For C[C@@H]1C[C@H]2[C@@H]3CCC4=CC(=O)C=C[C@]4(C)[C@@]3(F)[C@@H](O)C[C@]2(C)[C@@]1(O)C(=O)CO [Dex], the “Tumor volume, Day 0” value [1, 3] was 133 ± 8 mm^3, the “Tumor volume, Day 0” value [1, 4] was 133 ± 9 mm^3 and the “Tumor volume, Day 0” value [1, 5] was 125 ± 10 mm^3. For the same molecule, the “Tumor volume, Day 3” value [1, 3] was 240 ± 19 mm^3, the “Tumor volume, Day 3” value [1, 4] was 253 ± 17 mm^3 and the “Tumor volume, Day 3” value [1, 5] was 251 ± 22 mm^3. The “Tumor volume, Day 7” value [1, 3] was 374 ± 39 mm^3, the “Tumor volume, Day 7” value [1, 4] was 436 ± 23 mm^3 and the “Tumor volume, Day 7” value [1, 5] was 390 ± 46 mm^3. For the same molecule, the “Tumor volume, Day 10” value [1, 3] was 581 ± 50 mm^3, the “Tumor volume, Day 10” value [1, 4] was 553 ± 63 mm^3 and the “Tumor volume, Day 10” value [1, 5] was 462 ± 46 mm^3. For the same molecule, the “Tumor volume, Day 14” value [1, 3] was 904 ± 81 mm^3, the “Tumor volume, Day 14” value [1, 4] was 759 ± 81 mm^3 and the “Tumor volume, Day 14” value [1, 5] was 729 ± 77 mm^3. For the same molecule, the “Tumor volume, Day 17” value [1, 3] was 1354 ± 147 mm^3, the “Tumor volume, Day 17” value [1, 4] was 1346 ± 109 mm^3 and the “Tumor volume, Day 17” value [1, 5] was 1202 ± 118 mm^3. The “Tumor volume, Day 21” value [1, 3] was 1899 ± 155 mm^3, the “Tumor volume, Day 21” value [1, 4] was 1867 ± 130 mm^3 and the “Tumor volume, Day 21” value [1, 5] was 1630 ± 126 mm^3. The “TGI (tumor growth inhibition)” value [1, 3] was 19%, the “TGI (tumor growth inhibition)” value [1, 4] was 21% and the “TGI (tumor growth inhibition)” value [1, 5] was 31%.
In the case of C[C@]12CCC(=O)C=C1CC[C@@H]1[C@@H]2[C@@H](O)C[C@@]2(C)[C@H]1CC[C@]2(O)C(=O)CO [Hydrocortisone], the “Equivalent Potency” value [2] is given as 20 mg.
For C[C@H]1C[C@@H]2[C@H]([C@@H](O)C[C@@]3(C)[C@H]2CC[C@]3(O)C(=O)COC(=O)CCC(=O)O)[C@@]2(C)C=CC(=O)C=C12 [Methylprednisolone sodium succinate], the “Equivalent Potency” value [2] is given as 4 mg.
In the case of C[C@]12C=CC(=O)C=C1CC[C@@H]1[C@@H]2[C@@H](O)C[C@@]2(C)[C@H]1CC[C@]2(O)C(=O)CO [Prednisolone], the “Equivalent Potency” value [2] is listed as 5 mg.
